# Reference: patent US20240425478A1, “CYCLOPENTYLPYRAZOLE CDK2 INHIBITORS” (Genentech, Inc., priority 2021, published 2024)
# Like-named read-outs stand apart in the source and are kept apart here.
# How the values were obtained:
# [1] = system: OVISE (JCRB1043, CCNE1-amplified); assay: OVISE EdU incorporation cell proliferation assay (CDK2-dependent); type: cell-based; settings: for IC50: cellular assay, read-out: CDK2 OVISE IC50; for FS SKOV-3/OVISE / FS p-H3/OVISE: fold selectivity; for FS p-H3/OVISE: cellular p-H3 IC50 over OVISE IC50; for increased fold-selectivity SKOV-3/OVISE over Comparator C: (+) sign after FS SKOV-3/OVISE; for improvement in CDK2 OVISE cell potency over Comparator C: Comparator C 5.5 μM
# Procedure, shortened: (§1)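 EdU incorporation (0.5 μM final, last 8 h) follows a 16 h compound exposure at 37 °C, 5% CO2 in RPMI plus 10% FBS, 0.5% DMSO. After fixation, imaging scores EdU-positive cells; a 4-parameter logistic fit of that fraction gives IC50.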
# [2] = molecular target: T1, Cyclin Dependent Kinase 1/Cyclin A2 (CDK1-cycA2) (Homo sapiens, UniProt P06493); assay: CDK1-cycA2 TR-FRET (Lance) enzyme assay; type: biochemical; settings: for Ki: Table O, enzymatic assay; for FS CDK1/CDK2: fold selectivity, enzymatic Ki ratio
# T1 construct: purchased ProQinase 0134-0054-1
# T1 sequence (P06493 whole entry): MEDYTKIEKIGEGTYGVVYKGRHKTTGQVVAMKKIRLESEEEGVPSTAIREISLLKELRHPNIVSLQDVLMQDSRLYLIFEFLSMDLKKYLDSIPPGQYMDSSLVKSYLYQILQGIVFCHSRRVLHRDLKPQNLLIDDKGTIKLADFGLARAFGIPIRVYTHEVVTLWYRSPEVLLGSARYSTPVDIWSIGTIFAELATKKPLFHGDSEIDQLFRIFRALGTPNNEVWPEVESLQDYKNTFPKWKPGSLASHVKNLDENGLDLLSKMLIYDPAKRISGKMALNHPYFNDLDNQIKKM
# T1 sequence (P20248 whole entry partner): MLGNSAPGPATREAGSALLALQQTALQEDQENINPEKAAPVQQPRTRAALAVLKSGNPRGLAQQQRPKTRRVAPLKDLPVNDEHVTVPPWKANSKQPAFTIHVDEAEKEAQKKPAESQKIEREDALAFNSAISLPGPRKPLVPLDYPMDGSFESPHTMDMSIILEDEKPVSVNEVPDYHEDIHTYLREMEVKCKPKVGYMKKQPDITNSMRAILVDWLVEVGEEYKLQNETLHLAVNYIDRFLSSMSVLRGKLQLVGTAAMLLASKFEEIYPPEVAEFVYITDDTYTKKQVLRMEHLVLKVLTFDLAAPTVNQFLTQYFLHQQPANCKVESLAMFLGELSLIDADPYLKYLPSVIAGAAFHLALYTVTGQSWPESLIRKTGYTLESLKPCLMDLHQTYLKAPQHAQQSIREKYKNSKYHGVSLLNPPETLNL
# Procedure, shortened: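 TR-FRET (Lance) detection of phospho-4E-BP1 with a europium-labelled antibody after EDTA quench (15 mM final); signal taken as acceptor/donor ratio. Enzyme and compound were pre-incubated 30 min in HEPES pH 7.5 buffer with MgCl2, TCEP, BGG and Brij 35. Ki derived by Morrison fit.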
# HCT116 cells = assay: p-H3 HCT-116 mitotic release cell proliferation assay (cellular CDK1); type: cell-based; settings: Homo sapiens, HCT-116; Table O, cellular assay; read-out: CDK1 p-H3 IC50
# Procedure, shortened: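 Phospho-Histone H3 (Ser10) in lysates was quantified by a two-antibody HTRF FRET read (≥2 h, room temperature). Before this, HCT116 cells held in mitosis by 16 h of 500 nM nocodazole were treated with compound for 4 h at 37 °C, 0.1% DMSO.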
# [3] = molecular target: T2, Cyclin Dependent Kinase 2/Cyclin E1 (CDK2-cycE1) (Homo sapiens, UniProt P24941); assay: CDK2-cycE1 TR-FRET (LANCE) enzyme assay; type: biochemical; settings: for FS CDK1/CDK2 / FS CDK4/CDK2: fold selectivity; for increased fold-selectivity CDK4/CDK2 over Comparator C: (+) sign after FS CDK4/CDK2;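 for improvement in potency against CDK2 (Ki) over Comparator C: fold lower CDK2 Ki than comparator c (Ki 0.032 µM)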
# T2 construct: purchased ProQinase 0050-0055-1
# Procedure, shortened: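 Kinase reaction buffer: 50 mM HEPES pH 7.5, 10 mM MgCl2, 2 mM TCEP, 0.05% BGG, 0.01% Brij 35, with 30 min compound–enzyme pre-incubation.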
# SKOV-3 (ATCC HTB-77) = assay: SKOV-3 EdU incorporation cell proliferation assay (CDK4/6-dependent); type: cell-based; settings: for IC50: Homo sapiens, cellular assay, read-out: CDK4/6 SKOV-3 IC50; for FS SKOV-3/OVISE: fold selectivity, cellular IC50 ratio
# Procedure, shortened: as §1
# [4] = molecular target: T3, Cyclin Dependent Kinase 4/Cyclin D3 (CDK4-cycD3) (Homo sapiens, UniProt P11802); assay: CDK4-cycD3 TR-FRET (LANCE) enzyme assay; type: biochemical; settings: for Ki: Table O, enzymatic assay; for FS CDK4/CDK2: fold selectivity, enzymatic Ki ratio
# T3 construct: purchased Carna Biosciences 04-105
# T3 sequence (P11802 whole entry): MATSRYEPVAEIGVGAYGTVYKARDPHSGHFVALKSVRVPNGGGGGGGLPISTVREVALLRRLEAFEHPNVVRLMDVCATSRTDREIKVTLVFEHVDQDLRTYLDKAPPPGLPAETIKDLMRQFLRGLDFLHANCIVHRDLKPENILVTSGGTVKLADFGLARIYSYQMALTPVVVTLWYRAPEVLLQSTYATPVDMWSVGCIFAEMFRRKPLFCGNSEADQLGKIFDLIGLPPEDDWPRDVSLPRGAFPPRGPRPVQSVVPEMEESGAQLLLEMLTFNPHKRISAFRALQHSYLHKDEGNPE
# T3 sequence (P30281 whole entry partner): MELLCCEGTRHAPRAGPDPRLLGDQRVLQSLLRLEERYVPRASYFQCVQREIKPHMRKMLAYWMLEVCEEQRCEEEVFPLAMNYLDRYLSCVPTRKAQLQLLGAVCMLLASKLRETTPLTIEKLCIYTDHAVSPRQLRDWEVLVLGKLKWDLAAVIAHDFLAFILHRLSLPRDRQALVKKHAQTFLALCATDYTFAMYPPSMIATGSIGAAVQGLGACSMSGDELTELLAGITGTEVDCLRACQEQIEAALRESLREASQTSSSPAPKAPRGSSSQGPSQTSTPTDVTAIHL
# Procedure, shortened: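 Compound dose responses pre-incubated 30 min with enzyme mix in 50 mM HEPES pH 7.5, 10 mM MgCl2, 2 mM TCEP, 0.05% BGG, 0.01% Brij 35. Reaction quenched with EDTA (15 mM final); Eu-anti-phospho-4E-BP1 TR-FRET detection, acceptor/donor ratio. Ki derived by Morrison equation.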
# [5] = Table O, cellular SKOV-3 IC50 over OVISE IC50
# [6] = Table Q, in brackets after OVISE IC50
# [7] = Table O, enzymatic assay, read-out: CDK2 Ki
# [8] = Table O, enzymatic CDK1 Ki over CDK2 Ki
# [9] = Table O, enzymatic CDK4 Ki over CDK2 Ki
# [10] = Table Q, enzymatic assay, read-out: CDK2 Ki
# [11] = read-out: CDK2 activity / potency (enzymatic assay)
SMILES,IC50 ([1]; Table O),"FS SKOV-3/OVISE [1, 5]",FS p-H3/OVISE ([1]; Table O),increased fold-selectivity SKOV-3/OVISE over Comparator C ([1]; Table Q),"FS SKOV-3/OVISE ([1]; Table Q, cellular)","improvement in CDK2 OVISE cell potency over Comparator C [1, 6]",Ki [2],IC50 (HCT116 cells),improvement in potency against CDK2 (Ki) over Comparator C [3],"Ki [3, 7]","FS CDK1/CDK2 [3, 8]","FS CDK4/CDK2 [3, 9]",increased fold-selectivity CDK4/CDK2 over Comparator C ([3]; Table Q),"Ki [3, 10]","FS CDK1/CDK2 ([3]; Table Q, enzymatic)","FS CDK4/CDK2 ([3]; Table Q, enzymatic)","Ki [3, 11]","IC50 (SKOV-3 (ATCC HTB-77); SK-OV-3, Table O)","IC50 (SKOV-3 (ATCC HTB-77); SK-OV-3, Table Q)",Ki [4],also measured
"Cc1cnc(Nc2cc([C@H]3CC[C@@H](OC(=O)NC(C)C)C3)[nH]n2)c(C)n1 [Example 2V, (1R,3S)-3-(3-((3,5-dimethylpyrazin-2-yl)amino)-1H-pyrazol-5-y1)cyclopentyl isopropylcarbamate]",0.11 µM,23,0.88,(+) (The (+) sign in Table Q signifies desirable increased fold-selectivity of the exemplary compounds over Comparator C),23,50 fold,0.036 µM,0.097 µM,35 fold,0.00092 µM,39,280,(+) (The (+) sign in Table Q signifies desirable increased fold-selectivity of the exemplary compounds over Comparator C),0.00092 µM,39,280,≤ 0.001 µM,2.5 µM,2.5 µM,0.26 µM,"increased fold-selectivity CDK1/CDK2 over Comparator C ([3]; Table Q, (+) sign after FS CDK1/CDK2): (+) (The (+) sign in Table Q signifies desirable increased fold-selectivity of the exemplary compounds over Comparator C)"
"COc1cncc(Nc2cc([C@H]3CC[C@@H](OC(=O)NC(C)C)C3)[nH]n2)n1 [Example 2N, (1R,3S)-3-(3-((6-methoxypyrazin-2-yl)amino)-1H-pyrazol-5-yl)cyclopenty1 isopropylcarbamate]",0.029 µM,41,0.38,(+) (The (+) sign in Table Q signifies desirable increased fold-selectivity of the exemplary compounds over Comparator C),41,190 fold,0.0037 µM,0.011 µM,65 fold,0.00049 µM,7.6,53,(+) (The (+) sign in Table Q signifies desirable increased fold-selectivity of the exemplary compounds over Comparator C),0.00049 µM,7.6,53,–,1.2 µM,1.2 µM,0.026 µM,–
"CC(C)NC(=O)O[C@@H]1CC[C@H](c2cc(Nc3ccnc(C(F)(F)F)n3)n[nH]2)C1 [Example 2L, (1R,3S)-3-(3-((2-(trifluoromethyl)pyrimidin-4-yl)amino)-1H-pyrazol-5-yl)cyclopentyl isopropylcarbamate]",0.012 µM,53,0.15,(+) (The (+) sign in Table Q signifies desirable increased fold-selectivity of the exemplary compounds over Comparator C),53,458 fold,0.0029 µM,0.0018 µM,188 fold,0.00017 µM,17,650,(+) (The (+) sign in Table Q signifies desirable increased fold-selectivity of the exemplary compounds over Comparator C),0.00017 µM,17,650,–,0.64 µM,0.64 µM,0.11 µM,–
"CC(C)(C)NC(=O)O[C@@H]1CC[C@H](c2cc(Nc3ccncc3)n[nH]2)C1 [Example 4H, (1R,3S)-3-(3-(pyridin-4-ylamino)-1H-pyrazol-5-yl)cyclopentyl tert-butylcarbamate]",0.038 µM,25,1.4,–,–,–,0.18 µM,0.054 µM,–,0.002 µM,90,55,–,–,–,–,–,0.95 µM,–,0.11 µM,"CDK2 cell potency compared with Comparator E ([1]; CDK2 OVISE cellular assay data): more potent CDK2 cell inhibitors compared to Comparator E; CDK2 OVISE IC50 fold change in potency versus Comparator D ([1]; Table R, in brackets after OVISE IC50): 100 fold; CDK2 OVISE IC50 fold change in potency versus Comparator E ([1]; Table S, in brackets after OVISE IC50): 4.4 fold; FS CDK1/CDK2 increased over Comparator D, (+) sign ([2]; Table R): (+); FS CDK1/CDK2 ([2]; Table R): 90; FS CDK1/CDK2 increased over Comparator E, (+) sign ([2]; Table S): (+); FS CDK1/CDK2 ([2]; Table S): 90; Ki ([3]; Table R, enzymatic assay, read-out: CDK2 Ki): 0.002 µM; CDK2 Ki fold change in potency versus Comparator D ([3]; Table R, in brackets after CDK2 Ki): 1.4 fold; Ki ([3]; Table S, enzymatic assay, read-out: CDK2 Ki): 0.002 µM; CDK2 Ki fold change in potency versus Comparator E ([3]; Table S, in brackets after CDK2 Ki): 0.3 fold; selectivity for CDK2 over CDK4 compared with Comparator E (SKOV-3 (ATCC HTB-77); SKOV-3/OVISE fold-selectivity cellular assay data): increase in selectivity for CDK2 over CDK4; FS SKOV-3/OVISE increased over Comparator D, (+) sign (SKOV-3 (ATCC HTB-77); Table R): (+); FS SKOV-3/OVISE (SKOV-3 (ATCC HTB-77); Table R): 25; FS SKOV-3/OVISE increased over Comparator E, (+) sign (SKOV-3 (ATCC HTB-77); Table S): (+); FS SKOV-3/OVISE (SKOV-3 (ATCC HTB-77); Table S): 25; FS CDK4/CDK2 increased over Comparator D, (+) sign ([4]; Table R): (+); FS CDK4/CDK2 ([4]; Table R): 55; FS CDK4/CDK2 increased over Comparator E, (+) sign ([4]; Table S): (+); FS CDK4/CDK2 ([4]; Table S): 55"
"CC(C)NC(=O)O[C@@H]1CC[C@H](c2cc(Nc3cncc(C(F)(F)F)n3)n[nH]2)C1 [Example 2R, (1R,3S)-3-(3-((6-(trifluoromethyl)pyrazin-2-yl)amino)-1H-pyrazol-5-yl)cyclopentyl isopropylcarbamate]",0.0056 µM,30,0.63,(+) (The (+) sign in Table Q signifies desirable increased fold-selectivity of the exemplary compounds over Comparator C),30,982 fold,0.0004 µM,0.0035 µM,320 fold,< 0.0001 µM,6.3,140,(+) (The (+) sign in Table Q signifies desirable increased fold-selectivity of the exemplary compounds over Comparator C),< 0.0001 µM,6.3,140,≤ 0.001 µM,0.17 µM,0.17 µM,0.009 µM,–
